Laboratory results published in patent US9046527B2, “Mutated SUMO isoforms and uses thereof” (Université De Montréal, priority 2009, dated 2015).

Tests used:
[1] = target: T1, PML (Homo sapiens, UniProt P29590); test: LC-MS/MS of tryptic peptides from NTA-purified His-SUMO3 proteins of HEK293 cells treated or not with As2O3; assay type: cell-based
T1 construct: tryptic peptides from NTA-purified His-SUMO3 proteins of HEK293 cells treated or not with As2O3; endogenous in cells; host or cells: HEK293 cells expressing the His-SUMO3 mutant
T1 sequence (P29590 1-882): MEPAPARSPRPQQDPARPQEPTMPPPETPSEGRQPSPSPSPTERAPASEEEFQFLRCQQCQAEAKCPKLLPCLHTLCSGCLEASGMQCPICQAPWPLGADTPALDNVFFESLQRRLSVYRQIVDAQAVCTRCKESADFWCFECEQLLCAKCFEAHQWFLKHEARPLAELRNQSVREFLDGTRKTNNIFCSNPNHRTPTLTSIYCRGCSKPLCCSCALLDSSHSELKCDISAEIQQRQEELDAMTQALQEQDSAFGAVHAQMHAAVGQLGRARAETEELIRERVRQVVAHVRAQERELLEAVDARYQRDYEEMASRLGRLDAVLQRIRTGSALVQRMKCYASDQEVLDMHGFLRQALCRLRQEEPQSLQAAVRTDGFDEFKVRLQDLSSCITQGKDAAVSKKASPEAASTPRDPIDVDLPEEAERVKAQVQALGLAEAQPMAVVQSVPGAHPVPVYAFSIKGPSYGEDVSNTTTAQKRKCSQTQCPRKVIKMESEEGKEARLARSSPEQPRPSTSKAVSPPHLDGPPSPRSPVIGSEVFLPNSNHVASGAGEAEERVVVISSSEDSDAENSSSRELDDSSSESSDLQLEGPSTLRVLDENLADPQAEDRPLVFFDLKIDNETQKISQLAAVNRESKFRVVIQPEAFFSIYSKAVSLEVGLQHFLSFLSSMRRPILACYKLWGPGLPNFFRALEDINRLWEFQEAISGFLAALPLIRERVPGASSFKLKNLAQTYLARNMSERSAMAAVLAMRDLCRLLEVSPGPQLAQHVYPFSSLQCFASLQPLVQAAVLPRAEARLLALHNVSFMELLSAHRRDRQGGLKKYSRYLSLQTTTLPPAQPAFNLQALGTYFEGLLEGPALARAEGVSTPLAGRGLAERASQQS
Method: FIG. 21 is a scatter plot of tryptic peptides from NTA-purified His-SUMO3 proteins of HEK293 cells treated or not with As2O3.
(§1) SUMOylated proteins were purified from 10^9 cells of stably expressing His6-SUMO1 mutant; half of cell culture was treated with 1 μM As2O3 during 4 hours. Cells were harvested, washed with PBS and lysed with 15 mL of Buffer A (6 M guanidinium-HCl, 0.1 M NaH2PO4, 0.01 M Tris-HCl, pH 8.0, 10 mM-mercaptoethanol). The lysate was sonicated, centrifuged at 16 000 g for 30 minutes and filtered on 0.45 μm and mixed with 500 μL Ni^2+-NTA agarose beads (Invitrogen) pre-washed with lysis buffer and incubated overnight at room temperature on rotating wheel. The NTA beads were successively washed with the following solutions: buffer A, buffer B (8 M Urea, 0.1 M NaH2PO4, 0.01 M Tris-HCl, pH 6.3, 10 mM-mercaptoethanol), buffer B plus 0.2% Triton X-100, twice with buffer B. His SUMO proteins were eluted from the NTA beads using 200 mM imidazole, 0.15 M Tris-HCl, pH 6.7, 5% Glycerol. An example of the enriched His6-SUMO1 mutant proteins is shown on FIG. 20 following SDS-PAGE separation and gel visualisation using silver staining and anti-His immonublot.
This scatter plot compares the abundance of more than 4500 peptide ions, of which approximately 45 correspond to SUMOylated tryptic peptides (blue circles). […]

[2] = tested on: PML-nuclear bodies in HEK293 human cells; test: Immunofluorescence microscopy: co-localization of PML-Yellow Fluorescence Protein with His6-SUMO to nuclear bodies; assay type: cell-based; conditions: HEK293, incubation with 1 μM As2O3
From the text: Immunofluorescence microscopy of HEK293 human cells showing co-localization of PML-Yellow Fluorescence Protein with His6 SUMO1 WT (top) and Q92R mutant (bottom) to nuclear bodies. […] DAPI staining (nucleus).
Immunofluorescence microscopy of HEK293 human cells showing co-localization of PML-Yellow Fluorescence Protein with His6-SUMO1 WT, His6-SUMO1 mutant, His6-SUMO2 WT, His6-SUMO2 mutant, His6-SUMO3 WT, and His6-SUMO3 mutant to nuclear bodies, DAPI staining (nucleus).
The functional activity of the wild type and SUMO mutants was also determined from immunofluorescence microscopy by monitoring the recruitment of the SUMOylated promyelocytic leukaemia (PML) substrate to nuclear bodies following treatment of HEK293 cells with As2O3 (FIG. 14). The visualization of all SUMO mutants using this immunofluorescence assay also confirmed the functional activity of all three SUMO isoforms (FIG. 15).

[3] = tested on: protein SUMOylation; test: NTA purification of His6-SUMO1 mutant proteins, silver-stained SDS-PAGE and immunoblot anti-His; assay type: cell-based, human; conditions: cells stably expressing His6-SUMO1 mutant, stimulation with As2O3
Method: FIG. 20 illustrates gel electrophoresis separation of His6-SUMO1 mutant proteins following NTA purification. Silver-stained SDS-PAGE and immunoblot anti-His show an enrichment of His6-SUMO1 proteins as indicated from the trail of protein bands at the top of the gel.
as §1

[4] = tested on: Ubiquitin-conjugating enzyme E2; test: In vitro SUMOylation assay; assay type: biochemical; conditions: Coomassie or silver stained gel
Method: For in vitro SUMOylation, the reaction mixture comprised 20 μL of reaction buffer (20 mM NH4CO3 pH 9, 20 mM NaCl, 0.5 mM DTT), 1 μg recombinant and purified SUMO proteins, 0.5 μg of substrate E2-25K (Boston Biochem) or RanGAP fragment (Boston Biochem), 0.1 μg SASE1/SAE2 heterodimer (Boston Biochem), 0.5 μg conjugating enzyme hUbC9 (Boston Biochem) with or without Mg-ATP solution (Boston Biochem) at 5 mM. The reaction mixture was incubated at 37° C. for 1 hour and subsequently stopped by adding an equal volume of Laemmli Buffer. The reaction mixture was analysed separated by SDS-PAGE and visualized using Western Blotting (2 μl), coomassie staining (10 μL) or silver staining (5 μL) as shown in FIGS. 7 and 8.
Protein extracts were subjected to electrophoresis through a 4-12% NuPAGE Bis-Tris polyacrylamide gel (Invitrogen, Burlington, ON, Canada) under denaturing conditions. After electrophoresis, proteins were fixed within the polyacrylamide gel by incubating the entire gel in 5% (v/v) acetic acid in a 1:1 (v/v) water:ethanol solution. For silver staining, the gel was first sensitized for 1 minute using an aqueous solution of 0.02% sodium thiosulfate (Na2S2O3) unless otherwise indicated. Staining was performed by incubating the gel in 0.1% (v/v) silver nitrate (AgNO3) in water for 25 minutes at 4° C. Finally, the gel was developed in 3% (w/v) sodium carbonate (Na2CO3, pH: 11.4) containing 0.05% formalin (v/v) in water. The staining was then stopped with a solution of 5% (v/v) acetic acid in water. For Coomassie blue staining, proteins were fixed after gel separation and stained in a one-step procedure by incubating the entire gel in 0.1% (w/v) Coomassie Brilliant Blue R-250 in a 1:8:11 (v/v/v) acetic acid:methanol:water mixture for 1 hour at room temperature (RT). The gel was finally rinsed three times in a 1:4:5 (v/v/v) acetic acid:methanol:water solution at RT to visualize protein bands.

[5] = tested on: HA-RanGAP; test: In vivo SUMOylation assay with transfected HA-RanGAP, immunoblot anti-HA; assay type: cell-based, human
Method: FIG. 9 illustrates immunoblot of in vivo SUMOylation assay using transfected HA-RanGAP as protein substrate. Immunoblots are performed using an antibody that recognized the HA epitope. Immunoblots are presented for His6-SUMO1 (wild type, and mutant Q92R).
SUMO isoform mutants can also be co-transfected in mammalian cells with target protein substrates. For example, RanGAP1, a known SUMOylation target forms a tight complex in association with NUP358 and UBE2I/UBC9. The ubiquitin-conjugating enzyme E2 interacts with UBE2I favoring the conjugation of SUMO1 to RANGAP1, and subsequently stabilizes interactions of SUMOylated RANGAP1 with RANBP2/NUP358. The SUMO1/RANGAP1/UBC9/NUP358 complex associates with nuclear pore complexes (Joseph, J., Tan, S. H., Karpova, T. S., McNally, J. G., and Dasso, M. (2002). SUMO-1 targets RanGAP1 to kinetochores and mitotic spindles. The Journal of cell biology 156, 595-602; Swaminathan, S., Kiendl, F., Korner, R., Lupetti, R., Hengst, L., and Melchior, F. (2004). RanGAP1*SUMO1 is phosphorylated at the onset of mitosis and remains associated with RanBP2 upon NPC disassembly. The Journal of cell biology 164, 965-971). The SUMO isoform mutants are also functional and can be conjugated to RanGAP1 following transfection of these proteins in […] cells, as illustrated in FIG. 9. […]

## [AsH3] [As2O3]
[1]; HEK293, NTA-purified His-SUMO3 proteins, upon As2O3 treatment
  abundance of PML peptides: significant increased in abundance
[1]; HEK293 His-SUMO3 mutant, As2O3 treated vs not treated
  increase in SUMOylation of K490 bearing PML peptide: 8 fold
[2]
  formation of PML-nuclear bodies: Increase formation of PML-nuclear bodies
[3]
  protein SUMOylation (His6-SUMO1 protein bands): Enhanced protein SUMOylation

## His6-SUMO1 Q94R: recombinant His6-SUMO1 with mutation Q94R
[4]
  SUMOylated E2 band on stained gel: SUMOylated E2 is observed as the highest molecular weight band

## His6-SUMO2 Q88R: Substitution of Gln for Arg at position 88 in endogenous SUMO2 protein, N-terminal His6; SEQ ID NO: 8
[4]
  SUMOylated E2 band on stained gel: SUMOylated E2 is observed as the highest molecular weight band

## His6-SUMO1 E93R: recombinant His6-SUMO1 with mutation E93R
[4]
  SUMOylated E2 band on stained gel: SUMOylated E2 is observed as the highest molecular weight band

## His6-SUMO1 Q92R: Substitution of Gln for Arg at position 92 in endogenous SUMO1 protein, N-terminal His6; SEQ ID NO: 4
[4]
  SUMOylated E2 band on stained gel: SUMOylated E2 is observed as the highest molecular weight band
[5]
  SUMOylated HA-RanGAP band on immunoblot: SUMOylated HA-RanGAP is observed as the highest molecular weight band

B1: His6-SUMO3 Q92R/Q93N: Gln to Arg at position 87 and Gln to Asn at position 88 in endogenous SUMO3, N-terminal His6; SEQ ID NO: 12 (protein, listed as Homo sapiens)
chain: MAHHHHHHGGSMSEEKPKEGVKTENDHINLKVAGQDGSVVQFKIKRHTPLSKLMKAYCERQGLSMRQIRFRFDGQPINETDTPAQLEMEDEDTIDVFRNQTGG
modifications: N-terminal His6
[4]
  SUMOylated E2 band on stained gel: SUMOylated E2 is observed as the highest molecular weight band
